{"source": "paper PMC6544261", "about": "“A novel thermostable and halophilic thioredoxin reductase from the Red Sea Atlantis II hot brine pool” (PLoS ONE, 2019)", "molecular_target": "T1, ATII-TrxR (Cupriavidus basilensis, UniProt A0A643FQQ5)", "T1 construct": "codon-optimised synthetic gene in pET-28a(+), His-tagged, E. coli BL21(DE3), HisTrap; dimer", "T1 sequence (A0A643FQQ5 1-552)": "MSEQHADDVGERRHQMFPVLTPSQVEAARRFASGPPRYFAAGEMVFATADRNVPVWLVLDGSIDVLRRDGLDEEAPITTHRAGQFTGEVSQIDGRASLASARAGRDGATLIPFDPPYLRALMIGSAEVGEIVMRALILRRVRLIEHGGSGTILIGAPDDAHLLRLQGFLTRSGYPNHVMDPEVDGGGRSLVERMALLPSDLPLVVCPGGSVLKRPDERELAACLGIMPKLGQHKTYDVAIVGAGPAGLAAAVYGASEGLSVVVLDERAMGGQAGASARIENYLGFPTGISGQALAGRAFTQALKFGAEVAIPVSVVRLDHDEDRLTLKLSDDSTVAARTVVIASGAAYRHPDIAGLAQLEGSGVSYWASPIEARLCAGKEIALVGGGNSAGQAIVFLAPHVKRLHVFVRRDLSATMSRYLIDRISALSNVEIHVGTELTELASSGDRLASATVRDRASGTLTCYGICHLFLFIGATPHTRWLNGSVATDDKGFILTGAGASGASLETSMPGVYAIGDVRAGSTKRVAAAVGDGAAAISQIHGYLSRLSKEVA", "assay": "flavin absorbance at […] nm, co-elution of […] and […] nm peaks", "assay_type": "binding", "conditions": "cofactor bound to enzyme as purified", "data": [{"compound": "Cc1cc2nc3c(=O)[nH]c(=O)nc-3n(C[C@H](O)[C@H](O)[C@H](O)COP(=O)(O)OP(=O)(O)OC[C@H]3O[C@@H](n4cnc5c(N)ncnc54)[C@H](O)[C@@H]3O)c2cc1C", "note": "[FAD]", "values": [{"measurement": "mol FAD/mol native enzyme", "value": "The binding of ATII-TrxR protein to the cofactor FAD was confirmed"}]}]}
